Tests used:
Format in all cases: functional
[1] = tested on: Mus musculus; assay: Antitumor activity was evaluated by the change in body weight against IMC carcinoma in mice at a dose of 77.6 mg/kg
[2] = tested on: Mus musculus; assay: Antitumor activity was evaluated by the increase in life span (I.L.S) against IMC carcinoma in mice at a dose of 77.6 mg/kg
[3] = tested on: Mus musculus; assay: Antitumor activity was evaluated by the change in life span (day) against IMC carcinoma in mice at a dose of 77.6 mg/kg
[4] = tested on: Mus musculus; assay: Antitumor activity was evaluated by the change in body weight against IMC carcinoma in mice at a dose of 9.0 mg/kg
[5] = tested on: Mus musculus; assay: Antitumor activity was evaluated by the increase in life span (I.L.S) against IMC carcinoma in mice at a dose of 9.0 mg/kg
[6] = tested on: Mus musculus; assay: Antitumor activity was evaluated by the change in life span (day) against IMC carcinoma in mice at a dose of 9.0 mg/kg
[7] = tested on: Mus musculus; assay: Antitumor activity was evaluated by the change in body weight against IMC carcinoma in mice at a dose of 0.27 mg/kg
[8] = tested on: Mus musculus; assay: Antitumor activity was evaluated by the increase in life span (I.L.S) against IMC carcinoma in mice at a dose of 0.27 mg/kg
[9] = tested on: Mus musculus; assay: Antitumor activity was evaluated by the change in life span (day) against IMC carcinoma in mice at a dose of 0.27 mg/kg
[10] = tested on: Mus musculus; assay: Antitumor activity was evaluated by the change in body weight against IMC carcinoma in mice at a dose of 1.8 mg/kg
[11] = tested on: Mus musculus; assay: Antitumor activity was evaluated by the increase in life span (I.L.S) against IMC carcinoma in mice at a dose of 1.8 mg/kg
[12] = tested on: Mus musculus; assay: Antitumor activity was evaluated by the change in life span (day) against IMC carcinoma in mice at a dose of 1.8 mg/kg
[13] = tested on: Mus musculus; assay: Antitumor activity was evaluated by the change in body weight against IMC carcinoma in mice at a dose of 41.1 mg/kg
[14] = tested on: Mus musculus; assay: Antitumor activity was evaluated by the increase in life span (I.L.S) against IMC carcinoma in mice at a dose of 41.1 mg/kg
[15] = tested on: Mus musculus; assay: Antitumor activity was evaluated by the change in life span (day) against IMC carcinoma in mice at a dose of 41.1 mg/kg
[16] = tested on: Mus musculus; assay: Antitumor activity was evaluated by the change in body weight against IMC carcinoma in mice at a dose of 20.7 mg/kg
[17] = tested on: Mus musculus; assay: Antitumor activity was evaluated by the increase in life span (I.L.S) against IMC carcinoma in mice at a dose of 20.7 mg/kg
[18] = tested on: Mus musculus; assay: Antitumor activity was evaluated by the change in life span (day) against IMC carcinoma in mice at a dose of 20.7 mg/kg
[19] = tested on: Mus musculus; assay: Antitumor activity was evaluated by the increase in life span (I.L.S) against IMC carcinoma in mice at a dose of 30.0 mg/kg
[20] = tested on: Mus musculus; assay: Antitumor activity was evaluated by the change in life span (day) against IMC carcinoma in mice at a dose of 30.0 mg/kg
[21] = tested on: Mus musculus; assay: Antitumor activity was evaluated by the change in body weight against IMC carcinoma in mice at a dose of 30.0 mg/kg

## C[C@H]1CC[C@]2(C)C(C(=O)O)=CCC[C@H]2[C@]1(C)CCc1ccoc1
[1]
  Change in body weight: 1.6 g
[2]
  ILS at 77.6 mg/kg: 17%
[3]
  Life span: 14.8 days

## C=C1CC[C@H]2C(C)(C)CCC[C@]2(C)[C@H]1CC/C(C)=C/CO
[4]
  Change in body weight: 1.4 g
[5]
  ILS at 9 mg/kg: 2%
[6]
  Life span: 13 days

## C=C1CCC[C@@H]2[C@](C)(CC/C(C)=C/CO)[C@@H](C)CC[C@]12C
[7]
  Change in body weight: 1.9 g
[8]
  ILS at 0.27 mg/kg: -8%
[9]
  Life span: 11.7 days

## CC1=CCC[C@@H]2[C@@](C)(CC/C(C)=C/CO)[C@H](C)CC[C@]12C
[10]
  Change in body weight: 1.4 g
[11]
  ILS at 1.8 mg/kg: -3%
[12]
  Life span: 12.3 days

## CC1=CCC[C@@H]2[C@@](C)(CC/C(C)=C/CO)[C@H](C)CC[C@@]12C
[13]
  Change in body weight: 0.1 g
[14]
  ILS at 41.1 mg/kg: 98%
[15]
  Life span: 25.2 days

## C=C1CC[C@@H]2C(C)(C)CCC[C@@]2(C)[C@@H]1CC/C(C)=C/C(=O)O [COPALIC ACID]
[16]
  Change in body weight: 1.5 g
[17]
  ILS at 20.7 mg/kg: 10%
[18]
  Life span: 14 days

## O=c1[nH]cc(F)c(=O)[nH]1 [FLUOROURACIL]
[19]
  ILS at 30 mg/kg: 46%
[20]
  Life span: 18.5 days
[21]
  Change in body weight: -1.8 g
